This note sets out measurements from paper PMC3711437, “Real-time detection of DNA topological changes with a fluorescently labeled cruciform” (Nucleic Acids Research, 2013).

For orientation: inhibition means the share of the control response that was lost under treatment. A higher inhibition goes with a response far below the control.

The target of the assay is T1, E. coli gyrase holoenzyme (GyrA and GyrB) (Escherichia coli, UniProt P0AES4+P0AES6).
T1 construct: His-tagged GyrA and GyrB expressed separately in E. coli BL21-CodonPlus(DE3)-RIL, tags cleaved with TEV protease, Ni-NTA and S200 purified; used as holoenzyme
T1 sequence (P0AES4 whole entry, one chain of several): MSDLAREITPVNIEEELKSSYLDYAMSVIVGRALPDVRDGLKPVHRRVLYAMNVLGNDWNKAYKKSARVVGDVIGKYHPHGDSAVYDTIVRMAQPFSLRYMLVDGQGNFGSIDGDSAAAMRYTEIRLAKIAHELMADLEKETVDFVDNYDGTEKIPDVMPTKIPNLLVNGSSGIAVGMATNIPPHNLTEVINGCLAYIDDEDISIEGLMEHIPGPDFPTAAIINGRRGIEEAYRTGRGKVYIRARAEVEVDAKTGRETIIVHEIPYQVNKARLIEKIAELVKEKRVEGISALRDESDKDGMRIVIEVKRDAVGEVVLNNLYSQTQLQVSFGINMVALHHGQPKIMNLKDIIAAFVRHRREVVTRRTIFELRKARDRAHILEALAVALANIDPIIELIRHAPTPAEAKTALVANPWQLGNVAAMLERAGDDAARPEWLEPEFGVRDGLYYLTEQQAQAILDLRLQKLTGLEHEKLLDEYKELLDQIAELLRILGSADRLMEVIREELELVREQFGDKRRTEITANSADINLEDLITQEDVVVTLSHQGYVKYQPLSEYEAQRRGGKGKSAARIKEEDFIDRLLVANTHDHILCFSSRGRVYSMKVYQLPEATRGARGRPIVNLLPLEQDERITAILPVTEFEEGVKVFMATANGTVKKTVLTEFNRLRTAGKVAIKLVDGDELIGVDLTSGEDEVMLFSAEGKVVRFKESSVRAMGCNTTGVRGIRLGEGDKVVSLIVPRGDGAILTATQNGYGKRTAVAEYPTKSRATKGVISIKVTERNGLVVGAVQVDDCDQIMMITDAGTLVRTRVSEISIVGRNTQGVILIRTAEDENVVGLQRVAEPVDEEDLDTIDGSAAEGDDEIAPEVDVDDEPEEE
The experiment in a line: supercoiling, fluorescent cruciform extrusion, NCC screen. The format is biochemical. The text has this: supercoiling, fluorescent cruciform extrusion, NCC screen on E. coli gyrase holoenzyme (GyrA and GyrB)
In turn, `CCN1CCN(c2cc3c(cc2F)c(=O)c(C(=O)O)cn3C2CC2)CC1` [Enrofloxacin] gave an inhibition at 50 µM of 67%. The result for `CCn1cc(C(=O)O)c(=O)c2cc(F)c(N3CCN(C)CC3)cc21` [Pefloxacin] reads 95%; that for `CN1CCN(c2c(F)cc3c(=O)c(C(=O)O)cn4c3c2SCC4)CC1` [Rufloxacin], 89%; that for `NC1CCN(c2nc3c(cc2F)c(=O)c(C(=O)O)cn3-c2ccc(F)cc2F)C1` (stereo not shown) [Tosufloxacin], 96%.
